Measurements published in article PMC3380724 (BMC Neuroscience, 2012).

What was measured:
[1] = tested on: parental CHO-K1 cells; assay: Plate immunoassay for pERK, parental CHO-K1 cells; type: cell-based, Chinese hamster
[2] = target: T1, h5-HT2AR (Homo sapiens, UniProt P28223); assay: Intracellular calcium (Cai++) release assay, Calcium 4 dye, 5-HT2AR-CHO cells; settings: for Cai++ response when dye added into existing growth medium: "Serum Replete" protocol, 1 μM agonist (Figure 2)
[3] = target: T1, h5-HT2AR; assay: Plate immunoassay for pERK, 5-HT2AR-CHO cells; type: cell-based; settings: for pERK response after serum-replete preincubation: overnight serum-replete preincubation (Figure 7)
[4] = tested on: parental CHO-K1 cells; assay: Intracellular calcium (Cai++) release assay, parental CHO-K1 cells; type: cell-based, Chinese hamster
Description: Changes in Cai^++ levels were determined using the calcium-sensitive dye Calcium 4 (FLIPR No-wash kit, Molecular Devices, Sunnyvale CA, part #R8142). In our hands, the Molecular Devices kit produced results with reasonable signal intensity and reproducibility compared to other commercially available reagents (e.g., Fluo-3 and Fluo-4) without the necessity of dye removal or washing prior to measurements (data not shown). In addition to convenience, the lower number of manipulations required by this kit allowed for more rapid collection of data and decreased the likelihood of cell disturbance or loss.
Cells were plated in serum-replete medium at indicated densities in black-sided, clear bottom 96-well tissue culture plates. […] When plating volume was less than 150 μl, cells were less evenly distributed (visual observation; data not quantified), so we used 150 to 200 μl. […]
Fluorescence (λex = 485 nm, λem = 525 nm) was measured with a FlexStation3 (Molecular Devices). […] The CHO cells remained attached under these conditions; if using other cells lines, attachment should be monitored and reagent addition conditions modified as necessary.
Following addition of test reagent, fluorescence was recorded every 1.7 sec for 90-120 sec. […] Maximum peak height was determined by the FlexStation software (SoftMax Pro 5.2) for each well. […]

[5] = target: T2, unedited h5-HT2CR (Homo sapiens, UniProt P28335); settings: 5-HT2CR-CHO cells
T2 sequence (P28335 33-458): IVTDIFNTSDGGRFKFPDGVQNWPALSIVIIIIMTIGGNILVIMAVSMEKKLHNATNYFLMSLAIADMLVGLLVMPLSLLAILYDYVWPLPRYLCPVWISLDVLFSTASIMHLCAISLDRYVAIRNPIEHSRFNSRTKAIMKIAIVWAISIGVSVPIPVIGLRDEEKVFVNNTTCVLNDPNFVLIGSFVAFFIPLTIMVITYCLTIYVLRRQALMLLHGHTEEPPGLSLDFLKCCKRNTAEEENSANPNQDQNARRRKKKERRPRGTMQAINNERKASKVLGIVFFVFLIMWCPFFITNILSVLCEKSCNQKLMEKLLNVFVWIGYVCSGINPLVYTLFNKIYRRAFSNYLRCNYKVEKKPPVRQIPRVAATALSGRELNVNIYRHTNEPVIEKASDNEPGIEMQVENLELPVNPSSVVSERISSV

[6] = target: T2, unedited h5-HT2CR; assay: cell-based
[7] = target: T2, unedited h5-HT2CR; assay: Intracellular calcium (Cai++) release assay, Calcium 4 dye, 5-HT2CR-CHO cells
[8] = EC50 values for agonist-stimulated Cai++ release, 5-HT2CR-CHO cells, Serum-replete overnight preincubation

T1 sequence (P28223 whole entry): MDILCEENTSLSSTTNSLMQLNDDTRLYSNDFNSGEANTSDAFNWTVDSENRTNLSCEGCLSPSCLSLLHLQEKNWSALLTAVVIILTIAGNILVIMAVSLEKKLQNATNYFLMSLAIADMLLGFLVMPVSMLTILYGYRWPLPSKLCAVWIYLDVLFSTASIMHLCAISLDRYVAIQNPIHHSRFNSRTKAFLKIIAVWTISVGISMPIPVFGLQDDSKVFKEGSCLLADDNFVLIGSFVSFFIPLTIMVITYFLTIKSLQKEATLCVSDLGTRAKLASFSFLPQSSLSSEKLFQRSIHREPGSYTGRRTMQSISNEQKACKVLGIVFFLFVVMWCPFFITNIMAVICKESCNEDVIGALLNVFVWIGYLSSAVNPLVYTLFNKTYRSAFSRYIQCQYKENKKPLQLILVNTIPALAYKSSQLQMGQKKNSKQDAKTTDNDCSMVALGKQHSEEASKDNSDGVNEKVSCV

NCCc1c[nH]c2ccc(O)cc12 [5-HT, serotonin]
pERK response [1]: no detectable response | Cai++ response when dye added into existing growth medium [2]: dramatically reduced | pERK response after serum-replete preincubation [3]: suppressed | Time of peak ERK activation ([3]; serum-starved overnight, 1 μM 5-HT): 5 min | Cai++ release above baseline ([4]; above 10^-6 M 5-HT, in a few experiments, not consistent): < 5% | Cai++ release ([4]; any concentration of 5-HT (Figure 4B inset)): no Cai^++ release

COc1cc(CC(C)N)c(OC)cc1I (stereo not shown) [DOI, 1-[2,5-dimethoxy-4-iodophenyl]-2 aminopropane]
Concentration giving maximal pERK response ([5]; 5 min stimulation): ~1 μM | pERK response after serum-replete preincubation ([5]; overnight serum-replete preincubation (Figure 7)): suppressed | Cai++ response when dye added into existing growth medium [2]: completely eliminated | Cai++ response after serum preincubation ([2]; overnight serum-replete preincubation (Figure 3B)): virtually eliminated | EC50 [6]: 19 nM | Concentration giving maximal pERK response ([3]; 5 min stimulation): ~1 μM | pERK response after serum-replete preincubation [3]: suppressed | Cai++ response after serum preincubation ([7]; 5-HT2CR-CHO cells, overnight serum-replete preincubation (Figure 3D)): virtually eliminated | EC50 [7, 8]: > 100000 nM | EC50 ([7]; EC50 values for agonist-stimulated Cai++ release, 5-HT2CR-CHO cells, Serum-starved overnight preincubation): 5.4 nM

Clc1cncc(N2CCNCC2)n1 [MK212]
EC50 values for agonist-stimulated Cai++ release ([2]; Serum-replete overnight preincubation): No response | EC50 values for agonist-stimulated Cai++ release ([2]; Serum-starved overnight preincubation): No response | Cai++ release ([2]; any tested concentration up to 10^-4 M): no detectable Cai^++ release | Cai++ response after serum-replete preincubation ([7]; 5-HT2CR-CHO cells preincubated in serum-replete medium): greatly decreased | EC50 [7, 8]: > 11000 nM | Cai++ response magnitude ([7]; serum-starved 5-HT2CR-CHO cells): low magnitude

COc1ccc(NC(=O)c2ccc(-c3ccc(-c4noc(C)n4)cc3C)cc2)cc1OCCN(C)C [SB216641]
Effect of 5-HT1BR antagonist on Cai++ concentration response to 5-HT ([7]; 5-HT2CR-CHO cells, 10^-6 M SB216641, any concentration of 5-HT): no significant difference

Cc1cc2c(cc1Cl)N(C(=O)Nc1ccc(Oc3cccnc3C)nc1)CC2 [SB242084]
EC50 [7]: 2.3 nM | Inhibition of 5-HT-stimulated Cai++ response by antagonist ([7]; 5-HT2CR-CHO cells, 15 min pretreatment, 1 μM 5-HT): completely inhibited
